Measurements: patent US20200352931A1, “OXALAMIDES AS MODULATORS OF INDOLEAMINE 2,3-DIOXYGENASE” (PHENEX DISCOVERY VERWALTUNGS-GMBH, priority 2017, published 2020)

Molecular target: T1, Indoleamine 2,3-Dioxygenase (IDO1) in SKOV-3 cells (Homo sapiens, UniProt P14902)
T1 construct: endogenous in cells; host or cells: SKOV-3 (ATCC HTB-77), stimulated with 50 ng/ml interferon gamma
Assay: SKOV-3 cellular indoleamine 2,3-dioxygenase assay
Details: 50 ng/ml Interferon gamma, 100 μM L-Tryptophan, 24 hours, N-Formylkynurenin fluorescence, read-out: cell based activity (IC50)
Protocol: SKOV-3 Cellular Indoleamine 2,3-Dioxygenase Assay
SKOV-3 cells were obtained from the American Type Culture Collection (ATCC® HTB-77™) and maintained in McCoy's medium (Pan Biotech) supplemented with 10% fetal bovine serum and 1% Penicilin/Streptomycin. Cells were kept at 37° C. in a humidified incubator with 5% CO2. For assay preparation, cells were seeded at a density of 2*10^5/m into black clear bottom 96 well plates in 100 μl medium/well supplemented with 50 ng/ml Interferon gamma (eBioscience, Thermo Fisher Scientific). After cells fully adhered to the plate, dilution series of compounds were added in medium containing additional L-Tryptophan to a final L-Tryptophan concentration of 100 μM. The cells were incubated for 24 hours. Detection of produced N-Formylkynurenin was performed by addition of 3-Methylpiperidine to a final concentration of 200 mM. The plates were sealed and heated to 65° C. for 20 minutes in a water bath. After cooling the fluorescence of each well was recorded with a Victor™ X4 (PerkinElmer) plate reader at an emission wavelength of 535 nm and excitation at 405 nm (Tomek et al.; Anal Bioanal Chem (2013) 405:2515-2524., Tomek et al.; Biochim Biophys Acta. 2015 September; 1850(9):1772-80).

T1 sequence (P14902 whole entry): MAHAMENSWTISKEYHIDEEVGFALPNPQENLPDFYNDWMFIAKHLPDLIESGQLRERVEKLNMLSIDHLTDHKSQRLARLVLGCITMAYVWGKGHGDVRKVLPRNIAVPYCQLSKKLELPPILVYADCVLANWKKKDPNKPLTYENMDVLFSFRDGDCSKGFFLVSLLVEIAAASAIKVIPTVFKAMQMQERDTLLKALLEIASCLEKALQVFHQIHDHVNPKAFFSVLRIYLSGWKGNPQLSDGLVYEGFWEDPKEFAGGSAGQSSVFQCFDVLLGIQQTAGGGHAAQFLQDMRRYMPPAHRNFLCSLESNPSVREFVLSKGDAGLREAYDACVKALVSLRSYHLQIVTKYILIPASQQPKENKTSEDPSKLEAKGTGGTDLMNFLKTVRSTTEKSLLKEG

Structure (SMILES)	IC50 [nM]
O=C(Nc1cc(F)c(Cl)cc1F)C(=O)N1CCC(c2ccnc3ccc(F)cc23)CC1 [1/19]	< 100
CC1(C)CN(C(=O)C(=O)Nc2ccc(Cl)cc2)CCC1c1ccnc2ccc(F)cc12 (stereo not drawn) [1/45]	< 100
NC(=O)c1ccc2nccc(C3CCN(C(=O)C(=O)Nc4ccc(Cl)cc4)CC3)c2c1 [1/43]	> 1000
O=C(Nc1ccc(Cl)cc1F)C(=O)N1CCC(c2cc(C(F)(F)F)nc3ccccc23)CC1 [1/4]	100 to 1000
O=C(Nc1ccc(OC(F)F)cc1F)C(=O)N1CCC(c2ccnc3ccc(F)cc23)CC1 [1/40]	< 100
O=C(Nc1ccc(Br)cc1)C(=O)N1CCC(c2ccnc3ccc(F)cc23)CC1 [1/27]	< 100
O=C(Nc1ccc(C(F)(F)F)cn1)C(=O)N1CCC(c2ccccc2Cc2ccccc2)CC1 [6/1]	> 1000
N#Cc1ccc(NC(=O)C(=O)N2CCC(c3ccnc4ccc(F)cc34)CC2)c(F)c1 [1/23]	< 100
O=C(Nc1ccc(Cl)cc1)C(=O)N1CCC(c2ccnc3ccc(F)cc23)C(F)(F)C1 (stereo not drawn) [1/46]	< 100
O=C(N[C@@H]1CCc2ccccc2C1)C(=O)N1CCC(c2ccnc3ccc(F)cc23)CC1 [5/1]	> 1000
O=C(Nc1ccc(C(F)(F)F)c(Cl)c1)C(=O)N1CCC(c2ccnc3ccc(F)cc23)CC1 [1/20]	> 1000
O=C(Nc1ccc(Cl)cn1)C(=O)N1CCC(c2cccc(Cl)c2Cl)CC1 [2/5]	100 to 1000
O=C(Nc1ccc(C(F)F)cc1F)C(=O)N1CCC(c2ccnc3ccc(F)cc23)CC1 [1/25]	< 100
O=C(Nc1ccc(Cl)cn1)C(=O)N1CCC(c2ccnc(C(F)(F)F)c2Cl)CC1 [2/4]	100 to 1000
O=C(Nc1ccc(Cl)c(F)c1)C(=O)N1CCC(c2ccnc3ccc(F)cc23)CC1 [1/18]	< 100
O=C(Nc1ccc(-c2cnccn2)cn1)C(=O)N1CCC(c2ccnc3ccc(F)cc23)CC1 [5/4]	100 to 1000
O=C(NC1Cc2ccccc2C1)C(=O)N1CCC(c2ccnc3ccc(F)cc23)CC1 [5/7]	100 to 1000
O=C(Nc1ccc(C(F)(F)F)cn1)C(=O)N1CCC(c2ccncc2-c2ccccc2)CC1 [6/2]	> 1000
O=C(Nc1ccc(Cl)cc1F)C(=O)N1CCC(c2ccnc3ccccc23)CC1 [1/2]	< 100
O=C(Nc1ccc(OC(F)F)cc1)C(=O)N1CCC(c2ccnc3ccc(F)cc23)CC1 [1/39]	< 100

Structure (SMILES)	IC50 [nM]
O=C(Nc1ccc(Cl)cn1)C(=O)N1C2CCC1CC(c1ccnc3ccccc13)C2 (stereo not drawn) [1/10]	100 to 1000
O=C(Nc1ncc(Cl)cc1F)C(=O)N1CCC(c2ccnc3ccc(F)cc23)CC1 [1/29]	< 100
O=C(Nc1ccc(SC(F)(F)F)cc1)C(=O)N1CCC(c2ccnc3ccc(F)cc23)CC1 [1/38]	< 100
O=C(Nc1ccc(OC(F)(F)F)cc1)C(=O)N1CCC(c2ccnc3ccc(F)cc23)CC1 [1/37]	< 100
NC(=O)c1ccc(NC(=O)C(=O)N2CCC(c3ccnc4ccc(F)cc34)CC2)cc1 [5/9]	> 1000
O=C(Nc1ccc(F)cc1)C(=O)N1CCC(c2ccnc3ccc(F)cc23)CC1 [1/28]	< 100
O=C(Nc1cccc(C(F)(F)F)c1)C(=O)N1CCC(c2ccnc3ccc(F)cc23)CC1 [1/15]	100 to 1000
O=C(Nc1ccc(C(F)(F)F)c(F)c1)C(=O)N1CCC(c2ccnc3ccc(F)cc23)CC1 [1/21]	100 to 1000
O=C(Nc1ccc(Cl)cc1F)C(=O)N1CCC(c2ccnc3ccnn23)CC1 [1/5]	100 to 1000
Cc1cc(Cl)ccc1NC(=O)C(=O)N1CCC(c2ccnc3ccc(F)cc23)CC1 [1/32]	100 to 1000
O=C(Nc1ccc(Cl)cc1F)C(=O)N1CCC(c2ccccc2)C1 (stereo not drawn) [1/7]	> 1000
N#Cc1ccc(C2CCN(C(=O)C(=O)Nc3ccc(Cl)cn3)CC2)c2ccccc12 [2/6]	100 to 1000
N#Cc1ccc(NC(=O)C(=O)N2CCC(c3ccnc4ccc(F)cc34)CC2)cc1 [1/14]	< 100
O=C(Nc1ccc(F)c(Cl)c1)C(=O)N1CCC(c2ccccc2)CC1 [1/16]	> 1000
O=C(Nc1ccc(Cl)cn1)C(=O)N1CCC(c2cc(OC(F)F)nc3ccccc23)CC1 [1/33]	> 1000
NS(=O)(=O)c1ccc(NC(=O)C(=O)N2CCC(c3ccnc4ccc(F)cc34)CC2)cc1 [5/8]	> 1000
O=C(Nc1ccc(C(F)(F)F)cc1)C(=O)N1CCC(c2ccnc3ccc(F)cc23)CC1 [7/1]	< 100
O=C(Nc1ccc(Cl)cc1)C(=O)N1CCC(c2ccnc3ccccc23)CC1 [1/3]	< 100
O=C(Nc1ccc(Cl)cc1)C(=O)N1CCC(c2ccccc2)CC1 [1/1]	< 100
O=C(Nc1ccc(C(F)(F)F)cc1F)C(=O)N1CCC(c2ccnc3ccc(F)cc23)CC1 [1/17]	< 100

Continued, values first:

IC50 [nM]	Structure (SMILES)
< 100	O=C(Nc1ccc(Cl)cn1)C(=O)N1CCC2(CC1)OCc1cc(C(F)(F)F)ccc12 [100/11]
> 1000	CN1C(=O)c2ccccc2C12CCN(C(=O)C(=O)Nc1ccc(Cl)cn1)CC2 [100/7]
< 100	O=C(Nc1ccc(Cl)cn1)C(=O)N1CCC(c2ccnc3ccc(F)cc23)CC1 [Example 2, N-(5-Chloropyridin-2-yl)-2-(4-(6-fluoroquinolin-4-yl)piperidin-1-yl)-2-oxoacetamide]
< 100	CO[C@@H]1CN(C(=O)C(=O)Nc2ccc(Cl)cc2)CC[C@H]1c1ccnc2ccc(F)cc12 (single isomer, unassigned) [10/2a]
> 1000	O=C(Nc1ccc(Cl)cn1)C(=O)N1CCC2(CC1)OCc1ccc(Cl)cc12 [100/15]
100 to 1000	O=C(N[C@H]1CCc2ccccc2C1)C(=O)N1CCC(c2ccnc3ccc(F)cc23)CC1 [Example 5, (S)-2-(4-(6-Fluoroquinolin-4-yl)piperidin-1-yl)-2-oxo-N-(1,2,3,4-tetrahydro-naphthalen-2-yl)acetamide]
> 1000	O=C(NC1CCC(C(F)(F)F)CC1)C(=O)N1CCC(c2ccnc3ccc(F)cc23)CC1 (stereo not drawn) [8/6]
100 to 1000	O=C(Nc1ccc(Cl)cn1)C(=O)N1CCC(c2cccc3ccccc23)CC1 [Example 6, N-(5-Chloropyridin-2-yl)-2-(4-(naphthalen-1-yl)piperidin-1-yl)-2-oxoacetamide]
> 1000	O=C(NC1Cc2ccc(F)cc21)C(=O)N1CCC2(CC1)COc1cc(C(F)(F)F)ccc12 (stereo not drawn) [Example 103, N-(4-Fluorobicyclo[4.2.0]octa-1(6),2,4-trien-7-yl)-2-oxo-2-(6-(trifluoromethyl)-2H-spiro[benzofuran-3,4′-piperidin]-1′-yl)acetamide]
100 to 1000	O=C(Nc1ccc(Cl)cn1)C(=O)N1CCC2(CC1)COc1ccccc12 [100/2]
100 to 1000	N#Cc1ccc2c(c1)COC21CCN(C(=O)C(=O)Nc2ccc(Cl)cc2)CC1 [100/14]
< 100	O=C(Nc1csc(Cl)c1)C(=O)N1CCC(c2ccnc3ccc(F)cc23)CC1 [7/2]
100 to 1000	O=C(Nc1ccc(Cl)cn1)C(=O)N1CCC2(CC1)OCc1ccccc12 [100/1]
100 to 1000	C[C@H]1CC[C@H](NC(=O)C(=O)N2CCC(c3ccnc4ccccc34)CC2)CC1 [Example 4, N-((1r,4r)-4-Methylcyclohexyl)-2-oxo-2-(4-(quinolin-4-yl)piperidin-1-yl)acetamide]
< 100	O=C(Nc1ccc(Cl)cc1)C(=O)N1CC[C@@H](c2ccnc3ccc(F)cc23)[C@H](O)C1 (single isomer, unassigned) [Example 10b, trans-N-(4-Chlorophenyl)-2-(4-(6-fluoroquinolin-4-yl)-3-hydroxypiperidin-1-yl)-2-oxoacetamide]
> 1000	O=C(NCC1CC1)C(=O)N1CCC(c2ccnc3ccc(F)cc23)CC1 [8/4]
100 to 1000	O=C(Nc1ccc(Cl)cc1)C(=O)N1CC[C@H](c2ccnc3ccc(F)cc23)[C@H](O)C1 (single isomer, unassigned) [10/1a]
> 1000	O=C(Nc1ccc(Cl)cc1)C(=O)N1CC[C@@H](c2ccnc3ccc(F)cc23)[C@@H](O)C1 (single isomer, unassigned) [10/1b]
> 1000	CC(NC(=O)C(=O)N1CCC(c2ccnc3ccc(F)cc23)CC1)c1ccccc1 (stereo not drawn) [Example 8, 2-(4-(6-Fluoroquinolin-4-yl)piperidin-1-yl)-2-oxo-N-(1-phenylethyl)acetamide]
< 100	O=C(Nc1ccc(CCCl)cc1)C(=O)N1CCC(c2ccnc3ccc(F)cc23)CC1 [Example 7, N-(4-(2-Chloroethyl)phenyl)-2-(4-(6-fluoroquinolin-4-yl)piperidin-1-yl)-2-oxoacetamide]
> 1000	O=C(NC1CCC(F)(F)CC1)C(=O)N1CCC(c2ccnc3ccc(F)cc23)CC1 [8/3]
< 100	CO[C@H]1CN(C(=O)C(=O)Nc2ccc(Cl)cc2)CC[C@@H]1c1ccnc2ccc(F)cc12 (single isomer, unassigned) [10/2b]
100 to 1000	O=C(Nc1ccc(Cl)cc1)C(=O)N1CCCC2(CC1)COc1cc(C(F)(F)F)ccc12 (stereo not drawn) [Example 102, N-(4-Chlorophenyl)-2-oxo-2-(6′-(trifluoromethyl)-2′H-spiro[azepane-4,3′-benzofuran]-1-yl)acetamide]
< 100	O=C(Nc1ccc(Cl)cn1)C(=O)N1CCC2(CCc3ccccc32)CC1 [Example 100]
> 1000	CN1C(=O)C2(CCN(C(=O)C(=O)Nc3ccc(Cl)cn3)CC2)c2ccccc21 [100/4]
< 100	O=C(Nc1ccc(Cl)cc1)C(=O)N1CCC2(CC1)OCc1cc(Cl)ccc12 [100/9]
